Measured values published in patent US10813941B2, “Methods and compounds for treating malaria” (THE GEORGE WASHINGTON UNIVERSITY, A CONGRESSIONALLY …, priority 2016, dated 2020).
Read-outs that look alike come from different tables or passages of the source.

Legend:
[1] = cited from earlier work
[2] = rat, oral administration; cited from earlier work
P. falciparum Battambang = experiment: P. falciparum growth inhibition assay, strain Battambang; format: cell-based, Plasmodium falciparum; conditions: P. falciparum Battambang (chloroquine and artemisinin resistant), 72 h
Excerpt: (§1) P. falciparum strains were obtained through the MR4 as part of the BEI Resources Repository, NIAID NIH (www.mr4.org): Plasmodium falciparum 3D7 (wild-type, WT), Plasmodium falciparum K1 (MRA-159; chloroquine and sulfadoxine-pyrimethamine resistant) deposited by D E Kyle, and Plasmodium falciparum IPC 5202 Battambang Cambodia 2011 (MRA-1240; chloroquine and artemisinin resistant) deposited by Didier Menard at the Institut Pasteur du Cambodge. The P. falciparum mutant containing increased levels of MEP pathway metabolites had1 (MRA-1257), and its compliment had1+PfHad1-GFP (MRA-1258), were generated in strain 3D7 as reported (BEI Resources; Guggisburg 2014). […]
(§2) Asynchronous P. falciparum cultures were diluted to 1% parasitemia and were treated with FR900098 analogs at concentrations ranging from 0.25 ng/ml-100 μg/ml. […] After 3 days, parasite growth was quantified by measuring DNA content using PicoGreen (Life Technologies), as described. Fluorescence was measured on a FLUOstar Omega microplate reader (BMG Labtech) at 485 nm excitation and 528 nm emission. Half maximal inhibitory concentration (IC50) values were calculated by nonlinear regression analysis using GraphPad Prism software. […]

P. falciparum = conditions: cited from earlier work
P. falciparum K1 = experiment: P. falciparum growth inhibition assay, strain K1; format: cell-based, Plasmodium falciparum; conditions: P. falciparum K1 (chloroquine and sulfadoxine-pyrimethamine resistant), 72 h
Excerpt: as §1, §2

P. falciparum strain 3D7 = experiment: IPP rescue of growth inhibition; format: cell-based, Plasmodium falciparum; conditions: 250 μM IPP; RCB-185 1.2 nM-590.5 nM
Method: (§3) Asynchronous P. falciparum cultures were diluted to 1% parasitemia and were treated with FR900098 analogs at concentrations ranging from 0.25 ng/ml-100 μg/ml. Growth inhibition assays were performed in opaque 96-well plates at 100 μl culture volume. After 3 days, parasite growth was quantified by measuring DNA content using PicoGreen (Life Technologies), as described. Fluorescence was measured on a FLUOstar Omega microplate reader (BMG Labtech) at 485 nm excitation and 528 nm emission. Half maximal inhibitory concentration (IC50) values were calculated by nonlinear regression analysis using GraphPad Prism software. For isopentenyl pyrophosphate (IPP) (Echelon) rescue experiments, 250 μM IPP was added to the appropriate wells for the duration of the experiment.

P. falciparum 3D7 = experiment: P. falciparum growth inhibition assay (PicoGreen, 72 h), strain 3D7; format: cell-based, Plasmodium falciparum
Excerpt: (§4) P. falciparum strains were obtained through the MR4 as part of the BEI Resources Repository, NIAID NIH (www.mr4.org): Plasmodium falciparum 3D7 (wild-type, WT), Plasmodium falciparum K1 (MRA-159; chloroquine and sulfadoxine-pyrimethamine resistant) deposited by D E Kyle, and Plasmodium falciparum IPC 5202 Battambang Cambodia 2011 (MRA-1240; chloroquine and artemisinin resistant) deposited by Didier Menard at the Institut Pasteur du Cambodge. The P. falciparum mutant containing increased levels of MEP pathway metabolites had1 (MRA-1257), and its compliment had1+PfHad1-GFP (MRA-1258), were generated in strain 3D7 as reported (BEI Resources; Guggisburg 2014). Parasites were cultured in a 2% suspension of human erythrocytes and RPMI 1640 (Sigma) medium supplemented with 27 mM sodium bicarbonate, 11 mM glucose, 5 mM HEPES, 1 mM sodium pyruvate, 0.37 mM hypoxanthine, 0.01 mM thymidine, 10 μg/ml gentamicin, and 0.5% albumax (Gibco) at 37° C., 5% O2/5% CO2/90% N2 atmosphere as previously described (Zhang 2011).
as §3

P. falciparum 7G8 = experiment: P. falciparum growth inhibition assay, strain 7G8; format: cell-based, Plasmodium falciparum; conditions: P. falciparum 7G8 (quinine, chloroquine, and pyrimethamine resistant), 72 h
Method: as §3

[3] = tested on: P. falciparum had1 (PfHad1 loss-of-function strain); experiment: microbe, parasite or virus in culture; format: cell-based, Plasmodium falciparum
Excerpt: as §4, §3

P. falciparum D6 = experiment: P. falciparum growth inhibition assay, strain D6; format: cell-based, Plasmodium falciparum; conditions: P. falciparum D6 (mefloquine resistant), 72 h
Method: as §3

P. falciparum D10 = experiment: P. falciparum growth inhibition assay, strain D10; format: cell-based, Plasmodium falciparum; conditions: P. falciparum D10 (mefloquine resistant), 72 h
Method: as §3

[4] = mouse, oral administration; cited from earlier work
[5] = tested on: P. falciparum strain NF54 gametocytes; experiment: Gametocyte assay (flow cytometry); format: cell-based, Plasmodium falciparum; conditions: 72 h, 5 μM to 0.001 μM
Method: The next day, the parasites were resuspended at 10% gametocytemia, and 2% hematocrit.
A 96-well plate was prepared with 2× concentration of RCB-185 ranging 10 μM to 0.002 μM in complete RPMI with 1% DMSO as well as a positive control, 65 nM epoxomicin, and a negative control, 1% DMSO. Percoll purified NF54 strain P. falciparum gametocytes were added to individual wells at 2% hematocrit and 10% parasitemia in a 1:1 dilution, resulting in a final 1% hematocrit and a two-fold dilution of RCB-185 for a final concentration range of 5 μM to 0.001 μM and a final 0.5% DMSO, 32.5 nM epoxomicin. The plate was gassed with 90% N2, 5% O2, 5% CO2 and incubated at 37° C. with compound for 72 h. Following incubation, cells were analyzed using flow cytomtetry as described below.
Cells were incubated at a final 0.1% hematocrit in 50 nM DiIC(1)5 with buffer containing 1.67 mg/ml glucose, 8 mg/mL NaCl, 8 mM Tris-Cl (pH 7.4) and incubated at 37° C. for 20-30 minutes prior to analysis on BD Accuri C6 flow cytometer. Uninfected RBCs and unstained P. falciparum infected RBCs were incubated with MitoProbe DiIC1(5) as controls to determine the threshold for MitoProbe DiIC1(5) (640 nm laser excitation and FL4 emission filter [675/25 nm]) positive, single, and intact cell populations. One-way ANOVA was used to test for significance between the three treatment groups (VassarStats).

[6] = tested on: MEP pathway in P. falciparum strain 3D7; experiment: MEP pathway metabolite levels by LC-MS/MS; format: cell-based, Plasmodium falciparum; conditions: for reduction in MEcPP levels: 10 h
Method: P. falciparum strain 3D7 was cultured at 37° C. in 30 ml volumes in 100 mm tissue culture dishes (Techno Plastic Products) at 4% hematocrit until >8% parasitemia. […] Cultures were then lysed with 5% saponin, the parasite pellets washed with 1× phosphate-buffered saline (PBS), and the pellets stored at −80° C. Samples were extracted via addition of 600 μl of ice-cold extraction solvent [chloroform, methanol, and acetonitrile (2:1:1, v/v/v)] and two liquid nitrogen-cooled 3.2 mm stainless steel beads, followed by homogenization in the Tissue-Lyser II instrument (Qiagen, Valencia, Calif.) at 20 Hz for 5 min in a cold sample rack. Ice-cold water (600 μl) was added, and samples were homogenized for an additional 5 min at 20 Hz. After centrifugation (14,000 rcf at 4° C. for 5 min), the polar upper phase was aspirated and lyophilized. Dried samples were dissolved in 100 μl water and analyzed by LC-MS/MS.
The 4000QTRAP LC-MS/MS system (AB Sciex) was used in multiple-reaction monitoring (MRM) mode using negative ionization. The detailed instrument configuration and compound-dependent parameters for isoprenoid precursors were as previously described (Zhang 2011). LC separation prior to MRM detection was achieved by ion pair reverse-phase chromatography as described previously, with 10 mM tributylammonium acetate (pH 5.1-5.5) used as the ion pair reagent and the following modifications: (1) RP-hydro 100 mm×2.0 mm, 2.5 μm high performance liquid chromatography column (Phenomenex), (2) flow rate of 0.14 ml/min, (3) solvent A of 10 mM tributylammonium acetate in 5% methanol, (4) binary LC gradient (20% solvent B (100% methanol) from 0 to 2.5 min, 30% B for 12.5 min, 80% B for 5 min, and column equilibration at for 5 min), and (5) autosampler injection volume of 20 μl. For DOXP and MEcPP metabolites, one-way ANOVA was used to test for significance (VassarStats). A t-test was used to test for significance between UNT and 1× RCB-185 CDP-ME levels (VassarStats).

P. berghei ANKA = experiment: Mouse model of malaria, P. berghei asexual blood stages (luciferase); format: in vivo, Swiss Webster mice
Method: In vivo testing of RCB-185 against intraerythrocytic P. berghei parasites was performed by the Anti-Infectives Screening Core at NYU School of Medicine. Briefly, groups of 5-7 female Swiss Webster mice weighing 25-30 g were infected via intraperitoneal injection with 10^3 transgenic P. berghei ANKA that express a fusion GFP (mutant 3) and firefly luciferase (LucIAV) fusion under the control of the constitutive eeflaα promoter that is stably integrated into the 230p locus (PbGFP-Luccon). Two days post-infection, mice were treated by intraperitoneal injection with 50 mg/kg of the test compound RCB-185 or 20 mg/kg chloroquine or 2% methyl cellulose, 0.5% tween-80 as positive and vehicle controls, respectively. Treatment continued once a day for 5 days. At 7 days post-infection, mice were administered 2.5% isofluorane via a nose cone, and once anesthesized, were injected i.p. with 150 mg/kg of D-Luciferin Potassium-salt (Goldbio) dissolved in PBS. Mice were imaged 5-10 min after injection of luciferin with an IVIS 100 (Xenogen, Alameda, Calif.) and data acquisition and analysis were performed with Livinglmage (Xenogen) to quantify the level of infection. To test for significance between vehicle- and RCB-185-treated mice, a t-test was used (VassarStats).

[7] = tested on: P. falciparum had1+HAD1-GFP; experiment: P. falciparum growth inhibition assay, complemented strain had1+HAD1-GFP; format: cell-based, Plasmodium falciparum; conditions: had1 mutant supplied with WT copy of had1, FIG. 3 panel B
Excerpt: as §1, §2

[8] = Plasmodium falciparum, P. falciparum 3D7 (pan-sensitive, lab adapted), asynchronous, 72 h, mean±SEM

O=CN(O)CCCP(=O)(O)O [FSM, fosmidomycin, reference compound]
serum half-life ([1]; in vivo): 1.87 h | bioavailability ([1]; oral dosing): 20-40% | LD50 [2]: > 11,000 mg/kg | IC50 (P. falciparum Battambang; Plasmodium falciparum): 863 ± 248 nM | tolerability in human patients (P. falciparum; human, in vivo): well-tolerated | parasite clearance (P. falciparum; mean±standard deviation): 44 ± 18 h | IC50 (P. falciparum K1; Plasmodium falciparum): 837 ± 141 nM | rescue of growth by IPP (P. falciparum strain 3D7): rescues | IC50 (P. falciparum 3D7; [8]): 1020 ± 77.8 nM | IC50 (P. falciparum 3D7; Plasmodium falciparum, parent strain 3D7 (WT) in had1 comparison, FIG. 3, mean±SEM): 1160 ± 158 nM | IC50 (P. falciparum 7G8; Plasmodium falciparum): 1240 ± 189 nM | IC50 ([3]; Plasmodium falciparum): 5350 ± 831 nM | IC50 (P. falciparum D6; Plasmodium falciparum): 1340 ± 247 nM | IC50 (P. falciparum D10; Plasmodium falciparum): 2180 ± 353 nM | LD50 [4]: > 11,000 mg/kg

CC(=O)N(O)C/C=C/P(=O)(OCOC(=O)C(C)(C)C)OCOC(=O)C(C)(C)C [RCB-185]
killing of gametocytes [5]: failure of RCB-185 to kill gametocytes | reduction in MEcPP levels ([6]; 1× the IC50 value of 18.3 nM): 3.0 fold | reduction in MEcPP levels ([6]; 7.5× the IC50 value of 18.3 nM): 5.7 fold | DOXP levels versus untreated ([6]; 10 h treatment, 1× or 7.5× IC50): no significant difference | CDP-ME levels ([6]; 10 h treatment, limit of detection 1.25 ng/mL): below the limits of detection | MEP levels ([6]; 10 h treatment, limit of detection 12.5 ng/ml): below the limits of detection | IC50 (P. falciparum Battambang): 21.1 ± 1.8 nM | IC50 (P. falciparum K1): 31.9 ± 1 nM | rescue of growth by IPP (P. falciparum strain 3D7): supports growth of P. falciparum treated with RCB-185 at all concentrations tested | fold lower IC50 than FSM (P. falciparum 3D7; 3D7, RCB-185 versus FSM): 50 fold | IC50 (P. falciparum 3D7; P. falciparum 3D7 (pan-sensitive, lab adapted), asynchronous, 72 h, mean±SEM): 18.3 ± 1.9 nM | IC50 (P. falciparum 3D7; parent strain 3D7 (WT) in had1 comparison, FIG. 3, mean±SEM): 19.9 ± 4.2 nM | IC50 (P. falciparum 7G8): 46.7 ± 10.9 nM | fold more resistant, had1 versus WT parasites ([3]; had1 IC50 versus WT IC50): 3.8 fold | IC50 ([3]; had1 mutant (FSM-resistant), FIG. 3, mean±SEM, read-out: IC50): 76.5 ± 18.5 nM | IC50 (P. falciparum D6): 37.6 ± 10 nM | IC50 (P. falciparum D10): 42.5 ± 11.5 nM | adverse effects in mice (P. berghei ANKA; 50 mg/kg i.p. once a day): no adverse effects were observed | drop in parasite load compared to vehicle (P. berghei ANKA; 50 mg/kg i.p. once a day, luciferase signal 7 days post-infection): > 3 log | IC50 [7]: 26 ± 6.4 nM

C[C@@H]1CC[C@H]2[C@@H](C)C(=O)O[C@@H]3O[C@@]4(C)CC[C@@H]1[C@]32OO4 [artemisinin, reference compound]
IC50 (P. falciparum 3D7; [8]): 10.4 ± 1.6 nM

CCN(CC)CCCC(C)Nc1ccnc2cc(Cl)ccc12 (stereo not shown) [chloroquine, reference compound]
luciferase signal (parasite burden) (P. berghei ANKA; 20 mg/kg i.p. once a day, 7 days post-infection): below the limit of detection
